In patent US10266548B2, “Substituted benzylindazoles for use as Bub1 kinase inhibitors in the treatment of hyperproliferative diseases” (Bayer Intellectual Property GmbH, priority 2011, dated 2019) one finds IC50 data, which are given here for 13 compounds.

One assay deals with Caco2 cells. Kind of assay: Proliferation assay (Caco2 cell line). The class given is cell-based. Particulars: Homo sapiens, Caco-2, 96 h, read-out: Biological Assay 2: Proliferation assay (Caco2 cell line) median IC50. The protocol: (§1) Cultivated tumor cells (cells were ordered from ATCC, except HeLa-MaTu and HeLa-MaTu-ADR, which were ordered from EPO-GmbH, Berlin) were plated at a density of 1000 to 5000 cells/well, depending on the growth rate of the respective cell line, in a 96-well multititer plate in 200 μL of their respective growth medium supplemented 10% fetal calf serum. After 24 hours, the cells of one plate (zero-point plate) were stained with crystal violet (see below), while the medium of the other plates was replaced by fresh culture medium (200 μl), to which the test substances were added in various concentrations (0 μM, as well as in the range of 0.001-10 μM; the final concentration of the solvent dimethyl sulfoxide was 0.5%). The cells were incubated for 4 days in the presence of test substances. Cell proliferation was determined by staining the cells with crystal violet: the cells were fixed by adding 20 μl/measuring point of an 11% glutaric aldehyde solution for 15 minutes at room temperature. After three washing cycles of the fixed cells with water, the plates were dried at room temperature. The cells were stained by adding 100 μl/measuring point of a 0.1% crystal violet solution (pH 3.0). After three washing cycles of the stained cells with water, the plates were dried at room temperature. The dye was dissolved by adding 100 μl/measuring point of a 10% acetic acid solution. […] The change of cell number, in percent, was calculated by normalization of the measured values to the aborbtion values of the zero-point plate (=0%) and the absorbtion of the untreated (0 μm) cells (=100%). The IC50 values were determined by means of a 4 parameter fit using the company's own software.

The next assay has as its system HeLa cells. Description: Proliferation assay (HeLa cell line). The class given is cell-based. The settings on record: Homo sapiens, 96 h, read-out: Biological Assay 2: Proliferation assay (HeLa cell line) median IC50.
Assay [1] addresses catalytic domain of human Bub1 (amino acids 704-1085) (Homo sapiens (Human), UniProt O43683). Description: Bub1 kinase assay (TR-FRET). The class given is biochemical. The settings on record: 10 μM ATP, 1 μM peptide substrate; read-out: Biological Assay 1: Bub1 kinase assay median IC50. In short, it runs like this: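 Phosphoserine product detected by TR-FRET (Eu-labeled anti-mouse IgG/anti-phosphoserine antibody to streptavidin-XL665) after 1 h at 22 °C. IC50 from 4-parameter logistic fit.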

The test system of another assay is B16F10 cells. Kind of assay: Proliferation assay (B16F10 cell line). It counts as cell-based. Particulars: Mus musculus, B16-F10, 96 h, read-out: Biological Assay 2: Proliferation assay (B16F10 cell line) median IC50. How it is done:
as §1

For a further assay, the system named is DU145 cells. Description: Proliferation assay (DU145 cell line). It counts as cell-based. The settings on record: Homo sapiens, DU-145, 96 h, read-out: Biological Assay 2: Proliferation assay (DU145 cell line) median IC50. The protocol:
as §1

A further assay relates to NCI-H460 cells. Kind of assay: Proliferation assay (H460 cell line). The class given is cell-based. Particulars: Homo sapiens, NCI-H460, 96 h, read-out: Biological Assay 2: Proliferation assay (H460 cell line) median IC50. How it is done:
as §1

The next assay has as its system HeLa-MaTu-ADR cells. Description: Proliferation assay (HeLa-MaTu-ADR cell line). The class given is cell-based. Particulars: 96 h, read-out: Biological Assay 2: Proliferation assay (HeLa-MaTu-ADR cell line) median IC50. The protocol:
as §1

[2] abbreviates: HeLa-MaTu-ADR, 4 days, crystal violet.

Structures are written as SMILES. pIC50: −log10 of the molar value. Read-outs that look alike come from different tables or passages of the source. Bounds are passed on as bounds.

Chain of catalytic domain of human Bub1 (amino acids 704-1085) (O43683 704-1085): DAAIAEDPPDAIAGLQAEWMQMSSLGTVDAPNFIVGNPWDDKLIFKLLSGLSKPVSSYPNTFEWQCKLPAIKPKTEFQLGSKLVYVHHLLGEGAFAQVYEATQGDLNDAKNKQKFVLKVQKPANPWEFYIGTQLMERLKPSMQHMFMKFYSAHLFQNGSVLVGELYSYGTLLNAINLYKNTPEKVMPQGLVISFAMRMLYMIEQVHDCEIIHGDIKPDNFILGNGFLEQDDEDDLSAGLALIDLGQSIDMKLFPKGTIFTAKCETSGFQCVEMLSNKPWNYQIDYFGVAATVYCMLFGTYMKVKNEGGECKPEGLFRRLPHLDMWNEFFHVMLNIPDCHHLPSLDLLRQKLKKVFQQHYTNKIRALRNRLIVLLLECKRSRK

Regarding `COc1cnc(-c2nn(Cc3c(Cl)ccc(C(F)(F)F)c3Cl)c3ccccc23)nc1Nc1ccncc1` [Example 2-34-1, 2-{1-(2,6-dichloro-3-(trifluoromethyl)benzyl]-1H-indazol-3-yl}-5-methoxy-N-(pyridin-4-yl)pyrimidin-4-amine], the pIC50 in the assay with Caco2 cells (Caco2, 4 days, crystal violet) was 5.47; in the assay on HeLa cells (4 days, crystal violet), 5.80; in assay [1], 7.42; in the assay on B16F10 cells (B16F10, 4 days, crystal violet), 5.92; with DU145 cells (DU145, 4 days, crystal violet), 5.59; with NCI-H460 cells (H460, 4 days, crystal violet), 5.18. In the assay on HeLa-MaTu-ADR cells (setting [2]), the pIC50 is 5.92.
Regarding `COc1cnc(-c2nn(Cc3c(F)cc(C#N)cc3F)c3ccccc23)nc1Nc1ccncc1` [Example 2-46-1, 3,5-difluoro-4-({3-[5-methoxy-4-(pyridin-4-ylamino)pyrimidin-2-yl]-1H-indazol-1-yl}methyl)benzonitrile], the pIC50 in the assay on Caco2 cells was 6.05; in the assay on HeLa cells, 5.85; in assay [1], 7.80; in the assay with B16F10 cells, 6.15; in the assay on DU145 cells it was 6.07; with NCI-H460 cells it was 6.06. Besides, the pIC50 with HeLa-MaTu-ADR cells is 6.42.
For the compound `OCC1(COc2cnc(-c3nn(Cc4ccccc4F)c4ccccc34)nc2Nc2ccncc2)COC1` [Example 4-2-1, {3[({2-[1-(2-fluorobenzyl)-1H-indazol-3-yl]-4-(pyridin-4-ylamino)pyrimidin-5-yl}oxy)methyl]oxetan-3-yl}methanol], the pIC50 was 5.00 in the assay on Caco2 cells; 5.06 in the assay with HeLa cells; 8.48 in assay [1]; 5.43 with B16F10 cells; 5.00 in the assay on DU145 cells; 5.19 with NCI-H460 cells. In addition, in the assay with HeLa-MaTu-ADR cells, the pIC50 was 5.24.
As for `CN(C)CCOc1cnc(-c2nn(Cc3ccccc3F)c3ccccc23)nc1Nc1ccncc1` [Example 4-4, 5-[2-(dimethyl-amino)ethoxy]-2-[1-(2-fluorobenzyl)-1H-indazol-3-yl] N-(pyridin-4-yl)pyrimidin-4-amine], the pIC50 was 6.05 in the assay with Caco2 cells (Caco2, 4 days, crystal violet); 5.47 in the assay with HeLa cells (4 days, crystal violet); 7.85 in assay [1]; 6.30 in the assay with B16F10 cells (B16F10, 4 days, crystal violet); 5.35 in the assay on DU145 cells (DU145, 4 days, crystal violet); 5.46 with NCI-H460 cells (H460, 4 days, crystal violet). The pIC50 with HeLa-MaTu-ADR cells (setting [2]) is 5.92.
As for `CCOc1cc(F)c(Cn2nc(-c3ncc(OCCN(C)C)c(Nc4ccncc4)n3)c3ccccc32)c(F)c1` [Example 4-8, 5-[2-(dimethyl-amino)ethoxy]-2-[1-(4-ethoxy-2,6-difluorobenzyl)-1H-indazol-3-yl]-N-(pyridin-4~ yl)pyrimidin-4-amine], the pIC50 in the assay with Caco2 cells is 6.12; with HeLa cells it was 5.89; in assay [1], 8.10; in the assay on B16F10 cells, 6.24; in the assay with DU145 cells, 5.92; with NCI-H460 cells it was 5.96. Besides, in the assay with HeLa-MaTu-ADR cells, the pIC50 is 6.44.
Turning to `CCOc1cc(F)c(Cn2nc(-c3ncc(OCC(O)CN4CCCCC4)c(Nc4ccncc4)n3)c3ccccc32)c(F)c1` (stereo not shown) [Example 4-9, 1-({2-[1-(4-ethoxy-2,6-difluorobenzyl)-1H-indazol-3-yl]-4-(pyridin-4-ylamino)pyrimidin-5-yl}oxy)-3-(piperidin-1-yl)propan-2-ol], the pIC50 was 6.11 with Caco2 cells; 5.77 with HeLa cells; 8.27 in assay [1]; 6.28 in the assay with B16F10 cells; 5.89 in the assay on DU145 cells; 5.89 in the assay with NCI-H460 cells. In addition, the pIC50 in the assay with HeLa-MaTu-ADR cells is 6.07.
Regarding `CCOc1cc(F)c(Cn2nc(-c3ncc(OC[C@H]4CCC(=O)N4)c(Nc4ccncc4)n3)c3ccccc32)c(F)c1` [Example 4-19, (5R)-5-[({2-[1-(4-ethoxy-2,6-difluorobenzyl)-1H-indazol-3-yl]-4-(pyridin-4-ylamino)pyrimidin-5-yl}oxy)methyl] pyrrolidin-2-one], the pIC50 in the assay with Caco2 cells was 5.00; with HeLa cells it was 5.92; in assay [1], 8.00; in the assay on B16F10 cells, 6.28; with DU145 cells, 5.64; with NCI-H460 cells, 5.66. Further, the pIC50 with HeLa-MaTu-ADR cells was 5.00.
With `CCOc1cc(F)c(Cn2nc(-c3ncc(OC[C@@H]4CCC(=O)N4)c(Nc4ccncc4)n3)c3ccccc32)c(F)c1` [Example 4-22, (5S)-5-[({2-[1-(4-ethoxy-2,6-difluorobenzyl)-1H-indazol-3-yl]-4-(pyridin-4-ylamino)pyrimidin-5-yl}oxy)methyl] pyrrolidin-2-one], the pIC50 in the assay on Caco2 cells was 5.02; in the assay with HeLa cells, 5.72; in assay [1], 8.24; in the assay with B16F10 cells, 5.92; in the assay on DU145 cells it was 5.44; in the assay with NCI-H460 cells, 5.68. The pIC50 with HeLa-MaTu-ADR cells was 5.00.
Turning to `COc1ccc(Cn2nc(-c3nccc(Nc4ccncc4)n3)c3ccccc32)cc1` [Example 5-2, 2-[1-(4-methoxybenzyl)-1H-indazol-3-yl]-N-(pyridin-4-yl)pyrimidin-4-amine], the pIC50 with Caco2 cells is 5.52; in the assay with HeLa cells, 6.15; in assay [1], 7.57; in the assay with B16F10 cells it was 5.52; with DU145 cells, 5.52; with NCI-H460 cells it was 5.52. In the assay with HeLa-MaTu-ADR cells, the pIC50 is 5.52.
On to `C/C=C/c1cc(F)c(Cn2nc(-c3ncc(OC)c(Nc4ccncc4)n3)c3ccccc32)c(F)c1` [Example 6-2, 2-(1-{2,6-difluoro-4-[(1E)-prop-1-en-1-yl]benzyl}-1H-indazol-3-yl)-5-methoxy-N-(pyridin-4-yl)pyrimidin-4-amine], for which the pIC50 is 5.92 in the assay with Caco2 cells; 5.85 with HeLa cells; 8.13 in assay [1]; 5.96 in the assay on B16F10 cells; 5.85 in the assay on DU145 cells; 5.77 in the assay on NCI-H460 cells. Further, the pIC50 with HeLa-MaTu-ADR cells is 5.80.
On to `CCOc1cc(F)c(Cn2nc(-c3ncc(OC(F)F)c(N(c4ccncc4)C(F)F)n3)c3ccccc32)c(F)c1` [Example 10-2], for which the pIC50 with Caco2 cells (Caco2, 4 days, crystal violet) is 5.96; in the assay on HeLa cells (4 days, crystal violet), 5.77; in assay [1], 6.38; in the assay with B16F10 cells (B16F10, 4 days, crystal violet), 6.05; in the assay with DU145 cells (DU145, 4 days, crystal violet), 5.85; in the assay with NCI-H460 cells (H460, 4 days, crystal violet), 5.82. The pIC50 with HeLa-MaTu-ADR cells (setting [2]) was 6.23.
Take `OCC(O)COc1cnc(-c2nn(Cc3ccccc3F)c3ccccc23)nc1Nc1ccncc1` (stereo not shown) [Example 12-1, 3-({2-[1-(2-fluorobenzyl)-1H-indazol-3-yl]-4-(pyridin-4-ylamino)-pyrimidin-5-yl}oxy)propane-1,2-diol]: the pIC50 in the assay on Caco2 cells was 5.00; with HeLa cells it was at most 5.00; in assay [1], 7.96; with B16F10 cells, 5.00; in the assay with DU145 cells it was 5.00; in the assay on NCI-H460 cells, 5.00. In addition, in the assay with HeLa-MaTu-ADR cells, the pIC50 was 5.00.
Regarding `CCOc1cc(F)c(Cn2nc(-c3ncc(OCCO)c(Nc4ccncc4)n3)c3ccccc32)c(F)c1` [Example 13-1, 2-({2-[1-(4-ethoxy-2,6-difluorobenzyl)-1H-indazol-3-yl]-4-(pyridin-4-ylamino)pyrimidin-5-yl}oxy)ethanol], the pIC50 in the assay with Caco2 cells (Caco2, 4 days, crystal violet) was 5.92; in the assay with HeLa cells (4 days, crystal violet) it was 5.82; in assay [1] it was 8.48; in the assay with B16F10 cells (B16F10, 4 days, crystal violet) it was 6.10; with DU145 cells (DU145, 4 days, crystal violet), 5.80; in the assay on NCI-H460 cells (H460, 4 days, crystal violet), 5.89. In addition, in the assay on HeLa-MaTu-ADR cells (setting [2]), the pIC50 is 5.89.
